For one compound, IC50 results are on record in article PMC11184945, “Inhibition mechanism investigation of quercetagetin as a potential tyrosinase inhibitor” (Frontiers in Chemistry, 2024).

In the test the target is T1, tyrosinase (mushroom) (Agaricus bisporus, UniProt C7FF04).
T1 construct: gene PPO3
Put plainly: L-dopa oxidation assay at […] nm with Lineweaver-Burk kinetics (Ki […], Kis […]); static fluorescence quenching, CD. In kind it is biochemical.

SMILES strings stand for the structures.

The term IC50 denotes the point on the concentration scale where inhibition reaches its midpoint. A lower IC50 goes with greater potency.

T1 sequence (C7FF04 2-392): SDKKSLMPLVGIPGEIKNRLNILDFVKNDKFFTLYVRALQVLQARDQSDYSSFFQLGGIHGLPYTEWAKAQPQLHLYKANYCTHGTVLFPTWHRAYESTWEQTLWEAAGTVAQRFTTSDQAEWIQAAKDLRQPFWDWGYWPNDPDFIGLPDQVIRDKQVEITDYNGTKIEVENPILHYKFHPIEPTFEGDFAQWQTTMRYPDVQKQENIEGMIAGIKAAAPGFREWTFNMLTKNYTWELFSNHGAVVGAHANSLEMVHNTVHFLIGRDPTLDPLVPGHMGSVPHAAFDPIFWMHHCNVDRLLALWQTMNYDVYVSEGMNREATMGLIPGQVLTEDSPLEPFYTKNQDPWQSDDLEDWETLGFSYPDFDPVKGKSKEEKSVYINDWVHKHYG

In turn, `O=c1c(O)c(-c2ccc(O)c(O)c2)oc2cc(O)c(O)c(O)c12` [quercetagetin, 3,3′,4′,5,6,7-hexahydroxyflavone] yielded an IC50 of 190 ± 10 µM.
